Data from patent US20070179183A1 (priority 2003, published 2007).

Biological target: T1, α4β1 integrin (Homo sapiens, UniProt P05556+P13612)
T1 construct: endogenous in cells; host or cells: U-937 cells
Assay: U-937 Cell Adhesion to Human VCAM-1 (α4β1 Binding Assay)
Type: cell-based
Settings: read-out: IC50 values in the α4β1 assays
Protocol: Recombinant human soluble VCAM-1. (R&D Systems Ltd., UK) at 2 μg/ml in PBS was immobilized overnight onto microtiter plates. Unbound VCAM-1 was washed away and VCAM-1 coated plates were blocked with bovine serum albumin (BSA) 2.5% in PBS for 2 h at room temperature. U-937 cells were labelled with 5-carboxyfluorescein diacetate (5-CFDA) in order to detect bound cells to the wells. Test compounds were added to the wells followed by U-937 cells and the adhesion assay was performed for 1 h at 37° C. Following incubation, the wells were emptied and washed. Inhibition of binding was measured by the quantity of fluorescence bound to the plate for each of the various concentrations of test compound, as well as for controls containing no test compound, with a Cytofluor 2300 fluorescence measurement system.

T1 sequence (P13612 34-1032): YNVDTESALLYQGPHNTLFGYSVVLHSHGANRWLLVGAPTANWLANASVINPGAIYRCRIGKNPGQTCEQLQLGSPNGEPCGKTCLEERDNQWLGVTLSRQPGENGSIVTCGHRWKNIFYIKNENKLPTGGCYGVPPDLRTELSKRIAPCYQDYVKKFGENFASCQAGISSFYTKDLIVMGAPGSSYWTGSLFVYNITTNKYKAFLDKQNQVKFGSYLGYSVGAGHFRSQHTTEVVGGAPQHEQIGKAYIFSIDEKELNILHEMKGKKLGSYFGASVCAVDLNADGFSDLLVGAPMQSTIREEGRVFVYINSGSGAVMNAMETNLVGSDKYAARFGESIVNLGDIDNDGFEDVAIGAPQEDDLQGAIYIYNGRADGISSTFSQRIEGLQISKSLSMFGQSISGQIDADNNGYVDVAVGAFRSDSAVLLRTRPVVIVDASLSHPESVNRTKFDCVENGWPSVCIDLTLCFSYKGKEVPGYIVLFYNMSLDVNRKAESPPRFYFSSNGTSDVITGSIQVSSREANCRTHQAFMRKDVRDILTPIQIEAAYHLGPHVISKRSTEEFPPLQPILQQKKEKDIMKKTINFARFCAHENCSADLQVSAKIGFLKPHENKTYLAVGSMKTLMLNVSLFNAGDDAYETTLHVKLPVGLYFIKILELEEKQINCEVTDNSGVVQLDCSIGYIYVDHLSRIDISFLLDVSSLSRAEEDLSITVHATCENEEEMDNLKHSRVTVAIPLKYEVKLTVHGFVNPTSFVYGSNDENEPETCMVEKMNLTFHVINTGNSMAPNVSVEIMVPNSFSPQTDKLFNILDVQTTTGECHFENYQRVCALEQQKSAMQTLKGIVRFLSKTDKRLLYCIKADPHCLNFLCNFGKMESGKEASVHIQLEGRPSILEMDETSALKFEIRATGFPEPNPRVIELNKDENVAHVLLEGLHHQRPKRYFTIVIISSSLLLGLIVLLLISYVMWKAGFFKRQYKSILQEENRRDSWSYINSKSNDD
T1 sequence (P05556 21-798): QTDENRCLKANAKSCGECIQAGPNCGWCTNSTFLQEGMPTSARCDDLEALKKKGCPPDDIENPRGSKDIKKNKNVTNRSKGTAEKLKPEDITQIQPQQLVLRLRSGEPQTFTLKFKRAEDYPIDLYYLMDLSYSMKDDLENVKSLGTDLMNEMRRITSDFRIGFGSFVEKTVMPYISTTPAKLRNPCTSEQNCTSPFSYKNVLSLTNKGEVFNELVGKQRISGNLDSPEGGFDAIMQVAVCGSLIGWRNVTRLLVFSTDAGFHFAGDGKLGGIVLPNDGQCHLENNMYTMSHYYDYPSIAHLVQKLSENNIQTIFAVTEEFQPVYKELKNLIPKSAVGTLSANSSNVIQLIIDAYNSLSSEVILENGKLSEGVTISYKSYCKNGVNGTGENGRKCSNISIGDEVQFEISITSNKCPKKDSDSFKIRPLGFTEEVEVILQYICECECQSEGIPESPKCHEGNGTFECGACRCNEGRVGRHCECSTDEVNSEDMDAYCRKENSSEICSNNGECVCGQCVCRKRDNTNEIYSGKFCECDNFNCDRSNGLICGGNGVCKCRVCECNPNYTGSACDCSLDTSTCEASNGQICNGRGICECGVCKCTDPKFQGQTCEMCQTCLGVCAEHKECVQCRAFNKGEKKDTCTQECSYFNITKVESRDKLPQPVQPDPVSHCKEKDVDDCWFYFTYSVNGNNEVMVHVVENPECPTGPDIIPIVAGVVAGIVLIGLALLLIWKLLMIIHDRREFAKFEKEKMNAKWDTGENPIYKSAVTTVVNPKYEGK

IC50, < 0.1 µM:
O=C(Nc1ccc(C[C@H](NS(=O)(=O)NCc2ccccc2)C(=O)O)cc1)c1c(Cl)cccc1Cl [Example 3, (2S)-2-(N-benzylaminosulfonilamino)-3-[4-(2,6dichlorobenzoylamino)phenyl]propionic acid]
CC(C)N(C1CCCC1)S(=O)(=O)N[C@@H](Cc1ccc(NC(=O)c2c(Cl)cncc2Cl)cc1)C(=O)O [Example 71, (2S)-2-({[cyclopentyl(isopropyl)amino]sulfonyl}amino)-3-{4-[(3,5-dichloroisonicotinoyl)amino]phenyl}propionic acid]
O=C(Nc1ccc(C[C@H](NS(=O)(=O)Nc2ccccc2S(=O)(=O)c2ccccc2)C(=O)O)cc1)c1c(Cl)cncc1Cl [Example 81]
CC(C)CN([C@H](C)c1ccccc1)S(=O)(=O)N[C@@H](Cc1ccc(NC(=O)c2c(Cl)cncc2Cl)cc1)C(=O)O [Example 77, (2S)-3-{4-[(3,5-dichloroisonicotinoyl)amino]phenyl}-2-[({isobutyl[(1R)-1-phenylethyl]amino}sulfonyl)amino]propionic acid]
